Source: ChEMBL document CHEMBL1144189, “Novel and potent oxazolidinone antibacterials featuring 3-indolylglyoxamide substituents” (Bioorg Med Chem Lett, 2008)
Converted amounts (≈) assume the structure as drawn.

Tests used:
[1] = system: Enterococcus faecium; experiment: Antibacterial activity against vancomycin-resistant Enterococcus faecium DRCC 154; type: functional
[2] = system: Staphylococcus aureus; experiment: Antibacterial activity against methicillin-susceptible Staphylococcus aureus DRCC 035; type: functional
[3] = system: Enterococcus faecalis; experiment: Antibacterial activity against vancomycin-resistant Enterococcus faecalis DRCC 153; type: functional
[4] = system: Enterococcus faecalis; experiment: Antibacterial activity against vancomycin-susceptible Enterococcus faecalis DRCC 034; type: functional
[5] = system: Staphylococcus aureus; experiment: Antibacterial activity against methicillin-resistant Staphylococcus aureus DRCC 019; type: functional
[6] = system: Haemophilus influenzae; experiment: Antibacterial activity against beta-lactamase deficient Haemophilus influenzae DRCC 433; type: functional
[7] = system: Staphylococcus aureus; experiment: Antibacterial activity against linezolid-resistant Staphylococcus aureus DRCC 564; type: functional
[8] = system: Staphylococcus aureus; experiment: Antibacterial activity against Staphylococcus aureus DRCC 035 infected mouse systemic infection model administered orally for 1 day at 1 and 5 hrs post-infection and measured daily for 5 days; type: functional; details: po
[9] = system: Moraxella catarrhalis; experiment: Antibacterial activity against beta-lactamase deficient Moraxella catarrhalis DRCC 300; type: functional
[10] = system: Enterococcus faecalis; experiment: Antibacterial activity against linezolid-resistant Enterococcus faecalis DRCC 632; type: functional
[11] = Cmax in Swiss albino mouse at 10 mg/kg, po; type: ADME, organism-based; parameters: dose 10 mg/kg, route oral; details: in vivo
[12] = Half life in Swiss albino mouse at 10 mg/kg, po; type: ADME, organism-based; parameters: dose 10 mg/kg, route oral; details: in vivo
[13] = AUC (0 to t) in Swiss albino mouse at 10 mg/kg, po; type: ADME, organism-based; parameters: dose 10 mg/kg, route oral; details: plasma
[14] = Drug elimination in Swiss albino mouse at 10 mg/kg, po; type: ADME, organism-based; parameters: dose 10 mg/kg, route oral; details: in vivo
[15] = Tmax in Swiss albino mouse at 10 mg/kg, po; type: ADME, organism-based; parameters: dose 10 mg/kg, route oral; details: in vivo

Row | Compound | MIC [1] [µg/mL] | MIC [2] [µg/mL] | MIC [3] [µg/mL] | MIC [4] [µg/mL] | MIC [5] [µg/mL] | MIC [6] [µg/mL] | MIC [7] [µg/mL] | ED50 [8] [mg/kg] | MIC [9] [µg/mL] | MIC [10] [µg/mL] | Cmax [11] [ng/mL] | half-life [12] [h] | AUC(0-t) [13] [ng·h/mL] | k el [14] [s⁻¹] | Tmax [15] [h]
1 | COc1ccc2[nH]cc(C(=O)C(=O)N3CCN(c4ccc(N5C[C@H](CNC(C)=O)OC5=O)cc4F)CC3)c2c1 | 1 (≈ 1.86 µM) | 2 (≈ 3.72 µM) | 0.5 (≈ 0.93 µM) | 1 (≈ 1.86 µM) | 1 (≈ 1.86 µM) | > 32 | – | – | – | – | – | – | – | – | –
2 | COC(=S)NC[C@H]1CN(c2ccc(N3CCN(C(=O)C(=O)c4c[nH]c5ccc(Br)cc45)CC3)c(F)c2)C(=O)O1 | 1 (≈ 1.62 µM) | 1 (≈ 1.62 µM) | 0.5 (≈ 0.808 µM) | 1 (≈ 1.62 µM) | 1 (≈ 1.62 µM) | > 32 | 2 (≈ 3.23 µM) | > 30 | 1 (≈ 1.62 µM) | 2 (≈ 3.23 µM) | – | – | – | – | –
3 | COC(=O)NC[C@H]1CN(c2ccc(N3CCN(C(=O)C(=O)c4c[nH]c5ccc(Br)cc45)CC3)c(F)c2)C(=O)O1 | 1 (≈ 1.66 µM) | 1 (≈ 1.66 µM) | 0.5 (≈ 0.83 µM) | 1 (≈ 1.66 µM) | 0.5 (≈ 0.83 µM) | > 32 | 16 (≈ 26.6 µM) | – | 2 (≈ 3.32 µM) | 32 (≈ 53.1 µM) | – | – | – | – | –
4 | O=C(C(=O)N1CCN(c2ccc(N3C[C@H](CNC(=O)C4CC4)OC3=O)cc2F)CC1)c1c[nH]c2ccc(Br)cc12 | 2 (≈ 3.27 µM) | 1 (≈ 1.63 µM) | 1 (≈ 1.63 µM) | 2 (≈ 3.27 µM) | 2 (≈ 3.27 µM) | > 32 | 8 (≈ 13.1 µM) | 18.9 | 4 (≈ 6.53 µM) | 8 (≈ 13.1 µM) | 300 | 1.13 | 1260 | 0.000169 | 2
5 | O=C(C(=O)N1CCN(c2ccc(N3C[C@H](CNC(=O)C(Cl)Cl)OC3=O)cc2F)CC1)c1c[nH]c2ccc(Br)cc12 | 0.5 (≈ 0.763 µM) | 1 (≈ 1.53 µM) | 0.25 (≈ 0.381 µM) | 1 (≈ 1.53 µM) | 1 (≈ 1.53 µM) | > 32 | 4 (≈ 6.1 µM) | > 30 | 2 (≈ 3.05 µM) | 4 (≈ 6.1 µM) | – | – | – | – | –
6 | O=C(C(=O)N1CCN(c2ccc(N3C[C@H](Cn4ccnn4)OC3=O)cc2F)CC1)c1c[nH]c2ccc(Br)cc12 | 0.5 (≈ 0.838 µM) | 2 (≈ 3.35 µM) | 0.5 (≈ 0.838 µM) | 1 (≈ 1.68 µM) | 0.5 (≈ 0.838 µM) | > 32 | 8 (≈ 13.4 µM) | 28.9 | 4 (≈ 6.71 µM) | 16 (≈ 26.8 µM) | – | – | – | – | –
7 | O=C(C(=O)N1CCN(c2ccc(N3C[C@H](COc4ccon4)OC3=O)cc2F)CC1)c1c[nH]c2ccc(Br)cc12 | > 32 | > 32 | 32 (≈ 52.3 µM) | 32 (≈ 52.3 µM) | 32 (≈ 52.3 µM) | > 32 | 32 (≈ 52.3 µM) | – | 32 (≈ 52.3 µM) | 32 (≈ 52.3 µM) | – | – | – | – | –
8 | CC(=O)NC[C@H]1CN(c2ccc(N3CCN(C(=O)C(=O)c4c[nH]c5ccc(C#N)cc45)CC3)c(F)c2)C(=O)O1 | 1 (≈ 1.88 µM) | 1 (≈ 1.88 µM) | 0.5 (≈ 0.939 µM) | 1 (≈ 1.88 µM) | 1 (≈ 1.88 µM) | > 32 | – | > 30 | – | – | 430 | 1.19 | 1900 | 0.000161 | 3
